Data as given in patent US20260258003A1, “SLACK-ACTIVATING COMPOUNDS AND THEIR MEDICAL USE” (Johann Wolfgang Goethe-Universität Frankfurt am Main, priority 2023, published 2026).
Where two headings read alike, the source gives them in different places.

Key:
[1] = In vivo pharmacokinetic study, plasma and brain levels by LC-MS; set-up: species or system mice
Procedure: The compounds pharmacokinetic properties were examined in vivo by administering the compounds intraperitoneally (i.p.) at 1 mg/kg in mice, and determining plasma and brain levels over 8 h by LC-MS measurements.
The pharmacokinetic study was performed by Pharmacelsus (Saarbrücken, Germany). In total 27 male C57BL/6 mice (8 weeks old, 23-31 g body weight, purchased from Janvier Labs, France) were used. The animals were housed in a temperature-controlled room (20-24° C.) and maintained in a 12 h light/dark cycle. Food and water were available ad libitum. All experimental procedures were approved by and conducted in accordance with the regulations of the local Animal Welfare authorities (Landesamt für Gesundheit und Verbraucherschutz, Abteilung Lebensmittel-und Veterinärwesen, Saarbrücken).
The animals were divided into 3 groups (9 mice/group) and a cassette dosing was performed, in which the mice received a single dose of 1 mg/kg body weight of 3-4 compounds (dissolved in 0.9% NaCl containing 20% cyclodextrine) i.p. simultaneously. From each animal 2 blood samples were collected from the retrobulbar venous plexus under short isoflurane anesthesia (at 0.25 h and 0.5 h from 3 mice; at 1 h and 2 h from 3 mice; and at 4 h and 8 h from 3 mice). Li-heparin was used as anticoagulant. Plasma samples were obtained by centrifugation for 10 min at 3000× g and 4° C. Immediately after the last blood sample the animal was sacrificed by cervical dislocation and the brain was removed and frozen in liquid nitrogen. Plasma and brain samples were stored at −80° C. until LC-MS analysis.
For all other compounds, the HPLC system consisted of a U-HPLC pump (Accela) and an AS Open auto sampler (Thermo Fisher Scientific, USA), and mass spectrometry was performed on a Q Exactive (Orbitrap) accurate mass spectrometer equipped with a heated electrospray (H-ESI) interface (Thermo Fisher Scientific, USA) connected to a PC running the standard software Chromeleon 7.2. For all compounds, the HPLC pump flow rate was set to 600 μl/min and the compounds were separated on an analytical column with a suitable pre-column. The pharmacokinetic analysis was performed applying a non-compartment model using the Kinetica 5.0 software (Thermo Scientific, Waltham, USA). All given parameters were obtained by trapezoid area calculation.

[2] = tested on: voltage-gated (KV) potassium channel; assay: SafetyScreen44 binding; set-up: species or system rat; conditions: 10 μM
Procedure: (§1) Compound enzyme inhibition effect was calculated as a % inhibition of control enzyme activity. […] Measurements were performed in duplicate.

motor function of mice [3] = assay: Vertical pole test (motor function); type: in vivo; conditions: dose ≥0.39 mg/kg i.p.
Procedure: (§2) Further studies were conducted to assess the in vivo efficacy of Compound 6 and Compound 10 in mice. In detail, experiments were performed in 8 to 16 weeks old C57BL/6N mice (Charles River, Sulzfeld, Germany) and animals with a genetic deletion of Slack (Slack^−/− mice^27) of either sex. Animals were housed on a 12 h light/dark cycle with access to food and water ad libitum. All experiments adhered to the guidelines of the International Association for the Study of Pain and to the ARRIVE (Animal Research: Reporting on In Vivo Experiments) guidelines, and were approved by and conducted in accordance with the regulations of the local Animal Welfare authorities (Regierungspräsidium Darmstadt, Germany). All behavioral studies were conducted during the light cycle of the day at room temperature (20-24° C.) by an observer blinded for the treatment of the animals and/or their genotype.
(§3) Accelerating rotarod and vertical pole test were performed as follows: Mice were placed on a rotarod treadmill (Ugo Basile, Italy) with increasing speed (4-40 rpm over 300 s), and were trained for 4-5 consecutive days. Only mice reaching the 300 seconds without falling off were included in the experiment. On the testing day, compounds were i.p. administered in a vehicle composed of 0.9% saline (Sigma-Aldrich) containing 10% 2-hydroxypropyl-β-cyclodextrine (ITW Reagents) and after 15 min the latency to fall off the accelerating rotarod was measured. Immediately thereafter, mice were placed head-upward on the top of a vertical pole with a rough surface (diameter 1 cm, height 40 cm) and the time until animals reached the ground was recorded (cut-off time 20 s). Means out of three trials for each time point were calculated for further analysis.

[4] = target: T1, serotonin 5-HT2A receptor (Homo sapiens, UniProt P28223); assay: SafetyScreen44 binding; conditions: substantial = higher than 50%
T1 construct: Eurofins SafetyScreen44
T1 sequence (P28223 whole entry): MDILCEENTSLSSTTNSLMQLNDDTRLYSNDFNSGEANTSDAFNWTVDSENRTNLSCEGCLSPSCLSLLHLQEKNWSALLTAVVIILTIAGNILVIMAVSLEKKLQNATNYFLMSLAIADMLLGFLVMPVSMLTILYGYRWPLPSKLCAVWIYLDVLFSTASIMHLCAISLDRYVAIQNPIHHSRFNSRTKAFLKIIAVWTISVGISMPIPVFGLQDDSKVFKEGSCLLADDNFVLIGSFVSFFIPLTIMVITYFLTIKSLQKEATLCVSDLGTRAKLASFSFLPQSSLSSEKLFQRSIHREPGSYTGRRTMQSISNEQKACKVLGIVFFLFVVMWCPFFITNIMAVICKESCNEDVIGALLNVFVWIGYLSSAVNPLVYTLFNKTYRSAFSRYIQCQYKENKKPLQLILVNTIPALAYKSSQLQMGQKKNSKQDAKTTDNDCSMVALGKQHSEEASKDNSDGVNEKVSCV
Procedure: as §1

[5] = target: T2, human ether-à-go-go (hERG) potassium channel (Homo sapiens, UniProt Q12809); assay: SafetyScreen44 binding; conditions: 10 μM
T2 construct: Eurofins SafetyScreen44
T2 sequence (Q12809 whole entry): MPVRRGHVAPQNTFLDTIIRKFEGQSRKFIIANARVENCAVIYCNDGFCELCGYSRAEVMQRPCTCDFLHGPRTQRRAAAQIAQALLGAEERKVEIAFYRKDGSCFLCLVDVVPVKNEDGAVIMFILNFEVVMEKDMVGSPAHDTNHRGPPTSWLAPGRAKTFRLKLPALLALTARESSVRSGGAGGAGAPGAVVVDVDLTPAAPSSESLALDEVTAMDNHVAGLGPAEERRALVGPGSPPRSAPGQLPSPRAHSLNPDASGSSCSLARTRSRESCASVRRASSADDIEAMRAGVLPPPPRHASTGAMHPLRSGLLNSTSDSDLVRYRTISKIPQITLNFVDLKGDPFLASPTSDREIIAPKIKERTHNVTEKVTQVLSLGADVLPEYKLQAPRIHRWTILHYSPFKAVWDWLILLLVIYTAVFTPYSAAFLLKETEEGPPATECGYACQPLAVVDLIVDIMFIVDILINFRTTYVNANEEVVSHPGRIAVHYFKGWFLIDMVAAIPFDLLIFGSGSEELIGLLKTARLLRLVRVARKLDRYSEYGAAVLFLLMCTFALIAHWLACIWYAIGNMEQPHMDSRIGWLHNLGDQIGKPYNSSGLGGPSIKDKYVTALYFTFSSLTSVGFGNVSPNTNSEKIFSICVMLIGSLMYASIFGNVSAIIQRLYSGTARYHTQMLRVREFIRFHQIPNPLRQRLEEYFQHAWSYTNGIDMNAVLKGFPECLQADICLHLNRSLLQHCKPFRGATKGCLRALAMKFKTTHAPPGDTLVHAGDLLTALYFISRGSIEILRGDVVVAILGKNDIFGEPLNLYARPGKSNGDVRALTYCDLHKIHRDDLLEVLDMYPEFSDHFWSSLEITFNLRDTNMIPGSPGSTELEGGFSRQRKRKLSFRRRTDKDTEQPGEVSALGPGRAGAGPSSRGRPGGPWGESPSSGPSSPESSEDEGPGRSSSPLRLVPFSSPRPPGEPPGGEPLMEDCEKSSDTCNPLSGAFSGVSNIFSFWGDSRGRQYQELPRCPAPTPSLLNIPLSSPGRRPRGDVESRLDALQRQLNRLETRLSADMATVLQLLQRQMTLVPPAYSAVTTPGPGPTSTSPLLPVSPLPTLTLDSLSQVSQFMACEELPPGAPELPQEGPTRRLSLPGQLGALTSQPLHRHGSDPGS
Procedure: as §1

[6] = target: T3, serotonin 5-HT2B receptor (Homo sapiens, UniProt P41595); assay: SafetyScreen44 binding; conditions: substantial = higher than 50%
T3 construct: Eurofins SafetyScreen44
T3 sequence (P41595 whole entry): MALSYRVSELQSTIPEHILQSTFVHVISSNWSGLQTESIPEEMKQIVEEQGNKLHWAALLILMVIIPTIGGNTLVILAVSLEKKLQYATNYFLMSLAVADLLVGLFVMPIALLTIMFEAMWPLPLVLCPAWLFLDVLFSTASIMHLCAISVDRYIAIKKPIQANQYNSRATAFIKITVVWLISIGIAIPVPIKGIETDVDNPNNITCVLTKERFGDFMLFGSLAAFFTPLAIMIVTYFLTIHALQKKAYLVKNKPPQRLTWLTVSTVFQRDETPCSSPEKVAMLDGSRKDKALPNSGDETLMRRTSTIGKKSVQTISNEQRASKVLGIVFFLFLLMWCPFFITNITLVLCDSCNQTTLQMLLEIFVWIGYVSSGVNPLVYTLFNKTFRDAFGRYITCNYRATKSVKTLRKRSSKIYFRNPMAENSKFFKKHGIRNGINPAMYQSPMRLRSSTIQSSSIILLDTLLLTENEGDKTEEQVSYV
Procedure: as §1

[7] = target: T4, alpha-1A adrenergic receptor (α1A) (Homo sapiens, UniProt P35348); assay: SafetyScreen44 binding; conditions: substantial = higher than 50%
T4 construct: Eurofins SafetyScreen44
T4 sequence (P35348 whole entry): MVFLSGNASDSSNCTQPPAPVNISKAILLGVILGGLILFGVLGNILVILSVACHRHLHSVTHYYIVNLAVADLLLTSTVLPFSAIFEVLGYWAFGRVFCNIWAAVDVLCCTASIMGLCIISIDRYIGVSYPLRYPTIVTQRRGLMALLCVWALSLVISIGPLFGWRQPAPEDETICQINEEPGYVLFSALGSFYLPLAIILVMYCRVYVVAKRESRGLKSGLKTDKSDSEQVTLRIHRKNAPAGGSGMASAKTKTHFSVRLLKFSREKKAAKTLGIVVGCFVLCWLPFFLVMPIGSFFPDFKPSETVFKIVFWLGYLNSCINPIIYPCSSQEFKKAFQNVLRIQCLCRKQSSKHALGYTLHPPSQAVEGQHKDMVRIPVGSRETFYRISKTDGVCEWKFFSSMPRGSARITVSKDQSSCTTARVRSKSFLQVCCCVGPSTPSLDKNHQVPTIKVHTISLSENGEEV
Procedure: as §1

[8] = tested on: chloroquine-induced scratching behavior of mice; assay: Chloroquine-induced acute itch (scratching) model, systemic treatment; type: in vivo; conditions: systemic administration of a low dose; preliminary experiments, data not shown
Procedure: as §2
Acute itch behavior of the mice was monitored using a histamine-based, chloroquine-based and SLIGRL-based acute itch behavior model. In these models, three to four days before the experiment day, the fur on the dorsolateral aspect of the neck was shaved under brief isoflurane anesthesia. On the testing day, mice were habituated for 30 min in separate plexiglass cylinders (30 cm diameter). Compounds were dissolved in 0.9% saline containing 10% 2-hydroxypropyl-β-cyclodextrine and i.p. administered in a volume of maximal 200 μL. 15 min thereafter, the pruritogens chloroquine (200 μg), SLIGRL (100 μg) or histamine (800 μg), all dissolved in 0.9% saline (20 μL), were injected subcutaneously into the nape of the neck. Numbers of scratching bouts directed to the nape of the neck were assessed over 30 min by videotaping.

motor function of mice [9] = assay: Accelerating rotarod test (motor function); type: in vivo; conditions: dose ≥0.39 mg/kg i.p.
Procedure: as §2, §3

[10] = target: T5, serotonin transporter (SET) (Homo sapiens, UniProt P31645); assay: SafetyScreen44 binding; conditions: substantial = higher than 50%
T5 construct: Eurofins SafetyScreen44
T5 sequence (P31645 whole entry): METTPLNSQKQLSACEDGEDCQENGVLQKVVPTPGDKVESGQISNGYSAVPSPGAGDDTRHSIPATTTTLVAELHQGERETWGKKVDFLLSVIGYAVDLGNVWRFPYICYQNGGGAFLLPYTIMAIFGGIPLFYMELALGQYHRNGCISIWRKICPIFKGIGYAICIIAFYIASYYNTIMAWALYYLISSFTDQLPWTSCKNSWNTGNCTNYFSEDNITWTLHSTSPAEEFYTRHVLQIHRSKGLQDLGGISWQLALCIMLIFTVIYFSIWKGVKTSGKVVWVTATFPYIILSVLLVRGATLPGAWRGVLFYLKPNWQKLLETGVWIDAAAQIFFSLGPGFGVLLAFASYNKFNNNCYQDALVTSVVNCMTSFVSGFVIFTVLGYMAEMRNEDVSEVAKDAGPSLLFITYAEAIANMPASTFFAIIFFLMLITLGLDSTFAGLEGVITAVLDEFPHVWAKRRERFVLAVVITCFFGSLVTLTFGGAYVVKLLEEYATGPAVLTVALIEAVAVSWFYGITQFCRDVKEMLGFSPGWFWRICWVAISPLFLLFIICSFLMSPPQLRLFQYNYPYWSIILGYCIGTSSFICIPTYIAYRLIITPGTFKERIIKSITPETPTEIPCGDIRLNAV

44 targets = assay: SafetyScreen44 panel (Eurofins), whole panel; type: binding, mostly human; conditions: 10 μM, out of 44 targets
Procedure: as §1

[11] = male, C57BL/6, mouse, in vivo, ip, 1 mg/kg
[12] = mice, 1 mg/kg i.p., cassette dosing, plasma

O=C(O)COCCN1CCN(C2=Nc3ccccc3Oc3ccc(C(F)(F)F)cc32)CC1 [Compound 8, 2-(2-(4-(2-(Trifluoromethyl)dibenzo[b,f][1,4]oxazepin-11-yl)piperazin-1-yl)ethoxy) acetic acid]
% AUCextra [1, 11]: 20.7% | AUC(0-inf) [1, 11]: 851 ng·h/mL | AUC(0-t) [1, 11]: 675 ng·h/mL | CL/F [1, 11]: 19.6 mL/min/kg | Cmax [1, 11]: 316 ng/mL | Cz [1, 11]: 31.4 ng/mL | Tmax [1, 11]: 15 min | Vd/F [1, 11]: 6.58 L/kg | half-life [1, 11]: 234 min | tz [1, 11]: 8 h

OCCN1CCN(C2=Nc3ccccc3Oc3ccc(Cl)cc32)CC1 [Compound 5, 2-(4-(2-Chlorodibenzo[b,f][1,4]oxazepin-11-yl)piperazin-1-yl) ethan-1-ol]
% AUCextra [1, 11]: 1.3% | AUC(0-inf) [1, 11]: 50.2 ng·h/mL | AUC(0-t) [1, 11]: 49.6 ng·h/mL | CL/F [1, 11]: 332 mL/min/kg | Cmax [1, 11]: 44 ng/mL | Cz [1, 11]: 0.4 ng/mL | Tmax [1, 11]: 15 min | Vd/F [1, 11]: 33.1 L/kg | half-life [1, 11]: 72 min | tz [1, 11]: 8 h

CN1CCN(C2=Nc3cc(F)ccc3Oc3ccc(C(F)(F)F)cc32)CC1 [Compound 4, 8-Fluoro-11-(4-methylpiperazin-1-yl)-2-(trifluoromethyl)dibenzo[b,f][1,4]oxazepine]
% AUCextra [1, 11]: 11.4% | AUC(0-inf) [1, 11]: 122 ng·h/mL | AUC(0-t) [1, 11]: 108 ng·h/mL | CL/F [1, 11]: 137 mL/min/kg | Cmax [1, 11]: 40 ng/mL | Cz [1, 11]: 4.1 ng/mL | Tmax [1, 11]: 30 min | Vd/F [1, 11]: 27.7 L/kg | half-life [1, 11]: 138 min | tz [1, 11]: 8 h

CN1CCN(C2=Nc3ccccc3Oc3ccc(Cl)cc32)CC1 [Loxapine, 2-chloro-11-(4-methylpiperazin-1-yl)dibenzo[b,f][1,4]oxazepine, reference compound]
binding to voltage-gated (KV) potassium channel in the off-target screen [2]: did not measurably bind | ability to perform in the vertical pole test (motor function of mice [3]): significantly reduced the ability of the mice to perform | inhibition at 10 µM [4]: > 50% | binding to hERG potassium channel in the off-target screen [5]: did not measurably bind | inhibition at 10 µM [6]: > 50% | inhibition at 10 µM [7]: > 50% | chloroquine-induced scratching behavior of wildtype mice [8]: significantly alleviated | scratching behavior in Slack knockout mice [8]: did not affect | ability to perform in the accelerating rotarod test (motor function of mice [9]): significantly reduced the ability of the mice to perform | inhibition at 10 µM [10]: > 50% | number of targets with substantial binding inhibition (higher than 50%) (44 targets): 17 | AUC(0-inf) ([1]; male, C57BL/6, mouse, ip, mice, 1 mg/kg i.p., cassette dosing, plasma, read-out: AUC (0-inf)): 116 ng·h/mL | AUC(0-t) ([1]; male, C57BL/6, mouse, ip, mice, 1 mg/kg i.p., cassette dosing, plasma, read-out: AUC(0-tz)): 105 ng·h/mL | CL/F ([1]; male, C57BL/6, mouse, ip, mice, 1 mg/kg i.p., cassette dosing, plasma, read-out: CL/f (converted)): 144 mL/min/kg | Cmax ([1]; male, C57BL/6, mouse, ip, mice, 1 mg/kg i.p., cassette dosing, plasma, read-out: Cmax): 41.6 ng/mL | Vd/F ([1]; male, C57BL/6, mouse, ip, mice, 1 mg/kg i.p., cassette dosing, plasma, read-out: Vz/f): 28.8 L/kg | half-life ([1]; male, C57BL/6, mouse, ip, mice, 1 mg/kg i.p., cassette dosing, plasma, read-out: t1/2z (terminal elimination half-life) (converted)): 138 min | Tmax ([1]; male, C57BL/6, mouse, ip, mice, 1 mg/kg i.p., cassette dosing, plasma, read-out: tmax): 15 min | % AUCextra [1, 12]: 9.2% | Cz [1, 12]: 3.2 ng/mL | tz [1, 12]: 8 h
